# ± gives the expanded uncertainty stated by the source.
# Columns and labels:
# [1] = wn = mass fraction of the nth substance listed; settings: 304.15 K, 100 kPa, Liquid, transient hot wire
# [2] = 304.15 K; 100 kPa; Liquid; transient hot wire
smiles,measurement,setting,value
O [water] + CCCCCCCCCCCCOS(=O)(=O)[O-].[Na+],thermal conductivity,[1]; w2 = 0,0.613 ± 0.025 W/m/K
O [water],thermal conductivity,[2],0.613 ± 0.025 W/m/K
CCCCCCCCCCCCOS(=O)(=O)[O-].[Na+] [sodium dodecyl sulfate] + O,thermal conductivity,[1]; w1 = 0.001,0.589 ± 0.024 W/m/K
same,thermal conductivity,[1]; w1 = 0.003,0.538 ± 0.022 W/m/K
same,thermal conductivity,[1]; w1 = 0.005,0.537 ± 0.022 W/m/K
same,thermal conductivity,[1]; w1 = 0.007,0.499 ± 0.02 W/m/K
